Patent publication US20230270752A1, “METHODS OF TREATING PHELAN MCDERMID SYNDROME USING FARNESYL DIBENZODIAZEPINONES” (AMO Pharma Ltd., priority 2017, published 2023)
Entries after “also recorded” stand apart in the source; their conditions may differ.

Columns and labels:
[1] = system: induced pluripotent stem (IPS) cell lines derived from PMS patients; settings: PMS patient-derived IPS cell lines; cited from earlier work
Shank3 knockout mice = settings: placebo controlled, 12 weeks of treatment; cited from earlier work
Shank3 knockout mouse = settings: Shank3 exon 4-9 deletion mouse; cited from earlier work
[2] = system: Shank3b KO transgenic model of PMS; test: Marble burying test (species typical behaviors); format: in vivo, mice; settings: single dose 30 mg/kg i.p.
Description: (§1) Shank3b^-/- homozygous mice with deletions of exons 13-16, initially obtained from the Jackson Laboratory, and wild type (WT) littermates were generated on a C57BL/6J background and repeatedly backcrossed onto a C57BL/6J background for more than eight generations. The resulting Shank3 knockout (KO) mice were housed in groups of the same genotype in a temperature and humidity controlled room with a 12-h light-dark cycle (lights on 7 am to 7 pm). Room temperature and humidity were recorded continuously in the holding room. Testing was conducted during the light phase. Food and water were available ad libitum. Testing was conducted on Shank3 knockout mice and their wild type littermates, with N = 10 mice per treatment group, tested at two months of age during behavioral experiments. Mice were housed in commercial plastic cages and experiments were conducted in line with the requirements of the UK Animals (Scientific Procedures) Act, 1986. All experiments were conducted with experimenters blind to genotype and drug treatment. Animals were allowed a minimum acclimatization period of one week prior to performing any experiment. Only healthy animals were used. No prophylactic or therapeutic treatment was to be administered during the acclimatization period. […]
Day 5: Activities of daily living / species typical behaviors as assessed by marble burying. […]

[3] = system: person with a genetically confirmed diagnosis of Phelan McDermid Syndrome; test: Clinical assessment of seizures and behavior in a Phelan McDermid Syndrome subject; format: in vivo; settings: human PMS subject
Description: A person with a genetically confirmed diagnosis of Phelan McDermid Syndrome was administered AMO-01.
(§2) The study drug was prepared from a sterile bulk formulation containing 32.8 mg/mL (3.15% w/w) of the active drug substance dissolved in sterile 0.9% saline solution to produce an isotonic final dosing formulation. Each drug product vial contained 70 mg of AMO-01 drug substance in 2.134 mL of formulation (plus 2% overage). This corresponded to a total drug content of 71.4 mg of active drug substance per 2.176 mL of formula. AMO-01 was administered as a single dose via intravenous infusions over a 6 hour period, with the total dose administered as 120 mg/m^2.
Seizure frequency and Visual Evoked Potentials (VEPs) were assessed alongside clinical measures. VEPs provide a noninvasive technique to evaluate the functional integrity of visual pathways in the brain from the retina to the visual cortex via the optic nerve/optic radiations. The VEP is recorded from the head’s surface, over the visual cortex, and is extracted from ongoing EEG through signal averaging. VEPs reflect the sum of excitatory and inhibitory postsynaptic potentials occurring on apical dendrites (Zemon et al., 1986) which modulate excitatory and inhibitory signals received by the pyramidal cells. The major positive and negative peaks and troughs in VEP waveforms reflect different cellular events. The contrast-reversing checkerboard stimulus used in this study produces a positive peak at approximately 60 ms (P0 or P60), reflecting activation of the primary visual cortex from the lateral geniculate nucleus. A negative peak at approximately 75 ms (N0 or N75) reflecting depolarization and glutamatergic postsynaptic activity spreading to the superficial layers of primary visual cortex, and a positive peak at approximately 100 ms (P1 or P100) reflecting superficial hyperpolarization and GABAergic activity (Zemon et al., 1980). VEPs have been used in clinical trials; for example, an antiepileptic drug (gabapentin; Conte et al., 2009) and an infant formula (O′Connor et al., 2009). Both received FDA approval based in part on positive findings from VEP studies. Data from ongoing clinical trials at Mount Sinai provide support for use of VEPs as a measure of treatment response. Assessments of clinical response were made before treatment, after six hours of treatment, and one week, two weeks and four weeks after treatment according to the schematic in FIG. 8.

[4] = system: Shank3b KO transgenic model of PMS; test: Beam walking test (sensory motor function); format: in vivo, mice; settings: single dose 30 mg/kg i.p.
Description: as §1
Day 4: Sensory motor function as assessed by beam walking tests. […]

[5] = system: person with a genetically confirmed diagnosis of Phelan McDermid Syndrome; test: Visual Evoked Potentials in a Phelan McDermid Syndrome subject; format: in vivo; settings: human PMS subject, 120 mg/m^2 i.v. over 6 hours
Description: as §2
Seizure frequency and Visual Evoked Potentials (VEPs) were assessed alongside clinical measures. VEPs provide a noninvasive technique to evaluate the functional integrity of visual pathways in the brain from the retina to the visual cortex via the optic nerve/optic radiations. The VEP is recorded from the head’s surface, over the visual cortex, and is extracted from ongoing EEG through signal averaging. VEPs reflect the sum of excitatory and inhibitory postsynaptic potentials occurring on apical dendrites (Zemon et al., 1986) which modulate excitatory and inhibitory signals received by the pyramidal cells. The major positive and negative peaks and troughs in VEP waveforms reflect different cellular events. […]

[6] = system: Shank3 knockout transgenic mouse model of Phelan McDermid Syndrome; test: Behavioral testing battery overall (five days after single dose); format: in vivo, mice
Description: Shank3b^-/- homozygous mice with deletions of exons 13-16, initially obtained from the Jackson Laboratory, and wild type (WT) littermates were generated on a C57BL/6J background and repeatedly backcrossed onto a C57BL/6J background for more than eight generations. The resulting Shank3 knockout (KO) mice were housed in groups of the same genotype in a temperature and humidity controlled room with a 12-h light-dark cycle (lights on 7 am to 7 pm). Room temperature and humidity were recorded continuously in the holding room. Testing was conducted during the light phase. Food and water were available ad libitum. Testing was conducted on Shank3 knockout mice and their wild type littermates, with N = 10 mice per treatment group, tested at two months of age during behavioral experiments. Mice were housed in commercial plastic cages and experiments were conducted in line with the requirements of the UK Animals (Scientific Procedures) Act, 1986. All experiments were conducted with experimenters blind to genotype and drug treatment. Animals were allowed a minimum acclimatization period of one week prior to performing any experiment. Only healthy animals were used. No prophylactic or therapeutic treatment was to be administered during the acclimatization period.
AMO-01 from AMO Pharma Ltd was administered to mice as follows: • A. AMO-01 at a single dose of 30 mg/kg intraperitoneally in a vehicle of ethanol, PEG 400 and polysorbate 80 and 5% dextrose • B. Vehicle dosed intraperitoneally as 15 ml/kg Groups of N = 10 mice were treated 4 hours before testing on the first day of testing. Five days of testing were undertaken following the single intraperitoneal dose administered on Day 1.
The following groups were studied: • 1. Shank3b^-/- knockout mice + vehicle, N = 10 • 2. Shank3b^-/- knockout mice + AMO-01 30 mg/kg i.p., N = 10 • 3. Wild Type litter mates + vehicle, N = 10 • 4. Wild Type litter mates + AMO-01 30 mg/kg i.p., N = 10
The following tests were administered.

[7] = system: Shank3b KO transgenic model of PMS; test: Excessive self-grooming test (self-injurious behavior); format: in vivo, mice; settings: single dose 30 mg/kg i.p.
Description: as §1, with “experiment.” for “experiment. Only healthy animals were used. No prophylactic or therapeutic treatment was to be administered during the acclimatization period.”
Day 2: Excessive grooming leading to skin lesions. […] During this test, time spent grooming in all sequences: face-wiping, scratching/rubbing of head and ears, and full-body grooming was scored by an observer blind to genotype during the scoring.

[8] = system: Shank3b KO transgenic model of PMS; test: Audiogenic seizure threshold test; format: in vivo; settings: Shank3b KO mice, single dose 30 mg/kg i.p., 124 db 60 s stimulus
Description: as §1
Seizure threshold as assessed by audiogenic seizures was assessed in a separate cohort with N = 10 per group. […]

[9] = system: Shank3b KO transgenic model of PMS; test: Light dark box test (anxiety); format: in vivo, mice; settings: single dose 30 mg/kg i.p., 4 hours before testing
Description: as §1

[10] = system: Shank3b KO transgenic model of PMS; test: Social recognition and response to social novelty test; format: in vivo, mice; settings: single dose 30 mg/kg i.p.
Description: as §1

[11] = Shank3 knockout mice, 30 mg/kg i.p. single dose

IGF-1: insulin-like growth factor 1 (IGF-1)
Impaired post-synaptic AMPA and NMDA receptor responses / excitatory synapse deficits [1]: rescued | Social, repetitive and aberrant behaviors (Shank3 knockout mice): improvements in social, repetitive and aberrant behaviors | Phenotype / deficits of Shank3 knockout mouse (Shank3 knockout mouse): deficits in this model reversed; also recorded: rescue of the phenotype

CC(C)=CCC/C(C)=C/CC/C(C)=C/CN1C(=O)c2cccc(O)c2Nc2c(O)cc(O)cc21 [AMO-01, 10-farnesyl-4,6,8-trihydroxy-dibenzodiazepin-11-one]
Marble burying deficit ([2]; Shank3b-/- KO mice, Day 5): significantly reduced the deficit shown in Shank3b^-/- KO mice (p <0.0001). This reversal was complete | Effect on marble burying behavior ([2]; Wild Type mice): no significant effect | Recurrence of seizure events after infusion ([3]; 120 mg/m^2 i.v. over 6 hours): Approximately three weeks after the study drug infusion | Social, behavioral and motor changes during seizure-free period ([3]; 120 mg/m^2 i.v. over 6 hours): became more social, more engaged (e.g. better eye contact), more cooperative, less restless, and their motor skills also improved | Seizure occurrence after infusion ([3]; 120 mg/m^2 i.v. over 6 hours, baseline 3 to 4 seizures a week): seizures stopped altogether for the next two weeks | Impending seizure episode at time of infusion ([3]; single i.v. infusion 120 mg/m^2 over 6 hours): appeared to completely abort the impending seizure episode | Beam walking deficit ([4]; Shank3b-/- KO mice, Day 4): significantly reduced the deficit shown in Shank3b^-/- mice (p <0.0001). This reversal was complete | Effect on beam walking behavior ([4]; Wild Type mice): no significant effect | Visual Evoked Potentials before vs six hours after infusion [5]: ameliorated by treatment | Deficits across anxiety, grooming, sociability, sensori-motor and species typical behaviour domains [6, 11]: reversed deficits in all of these domains | Duration of rescue of the phenotype after a single dose [6, 11]: persisted for at least five days | Effect across anxiety, grooming, sociability, sensori-motor function, species typical behaviours, cognition ([6]; Wild Type mice, 30 mg/kg i.p.): without effect | Excessive self-grooming deficit ([7]; Shank3b-/- KO mice, Day 2): significantly reduced the deficit shown in Shank3b^-/- mice (p <0.0001). This reversal was complete | Effect on self-grooming ([7]; Wild Type mice): no significant effect | Audiogenic seizure threshold [8]: rescue of lowered audiogenic seizure threshold | Anxiety deficit in light dark box test ([9]; Shank3b-/- KO mice, Day 1): significantly reduced the deficit shown in Shank3b^-/- mice (p <0.0001) although this reversal was not complete | Effect on light dark box anxiety behavior ([9]; Wild Type mice): no significant effect | Response to social novelty (time in interaction with familiar or novel mouse) ([10]; Shank3b KO mice, Day 3, 30 mg/kg): rescue of response to social novelty; also recorded: normalizes the differential response to social novelty | Response to social novelty (time in interaction with familiar or novel mouse) ([10]; Wild Type mice): not affected by treatment
